Measurements taken from US9605029B2, “Antibody-binding peptide” (NATIONAL INSTITUTE OF ADVANCED INDUSTRIAL SCIENCE AND …, priority 2013, dated 2017).

Test system: Fc region (Jackson ImmunoResearch Laboratories, Inc.) labeled with horseradish peroxidase (HRP)
Test: ELISA of recombinant phages displaying polypeptides (Example 2, 6)
Format: binding, human
Conditions: recombinant T7 phage displaying the polypeptide; absorbance at 415 nm; control 0.098
Method: 6) In this section, it will be stated as an example that the binding activity of recombinant phages transformed by nucleic acids encoding amino acid sequences represented by SEQ ID NOs: 26, 27, 30 to 55, 57, 63 to 72 and 79 to 81 was measured by Enzyme Linked Immuno-Sorbent Assay (ELISA).
DNA molecules encoding amino acid sequences of SEQ ID NOs: 26, 27, 30 to 55, 57, 63 to 72 and 79 to 81 were amplified by a polymerase chain reaction (PCR) using KOD DNA polymerase (TOYOBO) under the reaction conditions according to the accompanying manual. Each of the amplified DNA was digested with restriction enzymes EcoRI and HindIII, and ligated to the 3′ terminal of g10 gene on T7 phage genomic DNA. Ligation to T7 phage genomic DNA was performed by use of a sample attached to T7Select10-3 Cloning Kit (Novagen) under the reaction conditions and in accordance with the procedure described in T7Select (registered trade mark) System Manual. Using T7 phage genomic DNA ligated, T7 phage was packaged in a test tube by T7Select Packaging Kit (Novagen) under the reaction conditions in accordance with T7Select (registered trade mark) System Manual (Novagen). Subsequently, phage plaque was formed in accordance with T7Select (registered trade mark) System Manual (Novagen). From each of the plaques, a recombinant phage displaying the polypeptide was isolated. To MICROTEST (registered trade mark) 96 (BECTON, DICKINSON AND COMPANY), a culture solution (0.2 mL) of Escherichia coli BL5403 strain cultured in LB medium until O.D.600 reached 1.0 was poured to infect with the Escherichia coli cells each of the recombinant phages isolated from plaques and allowed to stand still 37° C. for 12 hours to proliferate phages. The culture solution (10 μL) containing these phages was diluted in 90 μL of TBS buffer (50 mM Tris-HCl, 150 mM NaCl, pH 7.4) to prepare measurement samples.
The measurement samples were poured to MEDISORP 96 well microplate (Nunc) and allowed to stand still for one hour to allow the phage to physically adsorb to the plate. The supernatant was removed and SuperBlock (registered trade mark) T20 (TBS) Blocking Buffer (Thermo […]) (150 μL) was poured to the plate and allowed to stand still for one hour to block the surface of the plate. The plate was washed three times with TBS-T buffer (50 mM Tris-HCl, 150 mM NaCl, 0.1% Tween 20 (registered trade mark), pH 7.4). To the plate, TBS-T buffer (100 μL) containing an Fc region (Jackson ImmunoResearch Laboratories, Inc.) (0.2 μg/mL) labeled with horseradish peroxidase (HRP) was added and allowed to stand still for one hour. After the plate was washed three times with TBS-T buffer, ABTS One Component HRP Microwell Substrate (BioFX) (100 μL) was poured to the plate. The binding activity was detected through a […]. The absorbance at 415 nm (O.D.415) was measured by a microplate absorbance reader Sunrise R (TECAN GROUP LTD.). TBS-T buffer containing no phages was used as a negative control in a control experiment.
ELISA results of the recombinant phages displaying polypeptides containing amino acid sequences represented by SEQ ID NOs: 26, 27 and 30 to 55 and the recombinant phages displaying polypeptides containing amino acid sequences represented by SEQ ID NOs: 57, 63 to 72 and 79 to 81 are shown in Table 5A and Table 5B, respectively.

Point of comparison: “71 (DGVGPGSRGVYDPETGTWYDAAWHLGELVWATYYDPETGTWEPDWQRMLGQ; IgG binding peptide, p27) [compound 71]”, “O.D. 415” value 0.219. Against it:
- 69 (VVRVDHSSAVYDPETGTWYDAAWHLGELVWATYYDPETGTWEPDWQRMLGQ; IgG binding peptide, p20) [compound 69] — lower, 0.201
- 80 (LIPPGGISPWYDPETGTWYDAAWHLGELVWATYYDPETGTWEPDWQRMLGQ; IgG binding peptide, p25_2) [compound 80] — lower, 0.215
- 72 (FVSSLPNSAMYDPETGTWYDAAWHLGELVWATYYDPETGTWEPDWQRMLGQ; IgG binding peptide, p28) [compound 72] — higher, 0.229
- 79 (GSCKFSSSCHYDPETGTWYDAAWHLGELVWATYYDPETGTWEPDWQRMLGQ; IgG binding peptide, p24_2) [compound 79] — higher, 0.329
- 68 (FLVGLHAGAVYDPETGTWYDAAWHLGELVWATYYDPETGTWEPDWQRMLGQ; IgG binding peptide, p15_2) [compound 68] — lower, 0.186
- 64 (IPYGFPGRGEYDPETGTWYDAAWHLGELVWATYYDPETGTWEPDWQRMLGQ; IgG binding peptide, p4) [compound 64] — lower, 0.213
- 81 (LNDFLTPTAWYDPETGTWYDAAWHLGELVWATYYDPETGTWLPDWQTMAQK; IgG binding peptide, p31) [compound 81] — higher, 0.235
- 65 (GPYNIPDSAVYDPETGTWYDAAWHLGELVWATYYDPETGTWEPDWQRMLGQ; IgG binding peptide, p5) [compound 65] — higher, 0.291
- 70 (WMEFYPGRGVYDPETGTWYDAAWHLGELVWATYYDPETGTWEPDWQRMLGQ; IgG binding peptide, p26) [compound 70] — lower, 0.189
- 67 (VPPRFSSSAQYDPETGTWYDAAWHLGELVWATYYDPETGTWEPDWQRMLGQ; IgG binding peptide, p14) [compound 67] — higher, 0.25
- 66 (WPLNAPSSAFYDPETGTWYDAAWHLGELVWATYYDPETGTWEPDWQRMLGQ; IgG binding peptide, p13) [compound 66] — lower, 0.182
- 63 (SNFVRSPSAWYDPETGTWYDAAWHLGELVWATYYDPETGTWEPDWQRMLGQ; IgG binding peptide, p2_2) [compound 63] — higher, 0.272
- 57 (GPGISAFSPGRGVYDPETGTWYDAAWHLGELVWATYYDPETGTWEPDWQRMLGQ; IgG binding peptide, p17) [compound 57] — higher, 0.229

Same assay, conditions: recombinant T7 phage displaying the polypeptide; absorbance at 415 nm; control 0.11

Point of comparison: “35 (DAAWHLGELVWATYYDPETGTWRPDWAVMATP; IgG binding peptide, pep2) [compound 35]”, “O.D. 415” value 0.32. Against it:
- 33 (DAAWHLGELVWATYYDPETGTWVPDWERMKQH; IgG binding peptide, pep31) [compound 33] — lower, 0.305
- 47 (DAAWHLGELVWATYYDPETGTWLPDWDTMTPR; IgG binding peptide, pep19) [compound 47] — lower, 0.255
- 48 (DAAWHLGELVWATYYDPETGTWQPDWSVMKSL; IgG binding peptide, pep20) [compound 48] — higher, 0.373
- 34 (DAAWHLGELVWATYYDPETGTWEPDWSKMRPQ; IgG binding peptide, pep1) [compound 34] — lower, 0.281
- 54 (DAAWHLGELVWATYYDPETGTWQPDWEIMRPF; IgG binding peptide, pep30) [compound 54] — lower, 0.258
- 37 (DAAWHLGELVWATYYDPETGTWLPDWDYMSSK; IgG binding peptide, pep4) [compound 37] — lower, 0.235
- 41 (DAAWHLGELVWATYYDPETGTWQPDWGRMNSK; IgG binding peptide, pep12) [compound 41] — lower, 0.274
- 26 (DAAWHLGELVWATYYDPETGTWLPDWQTMAQK; IgG binding peptide, pep21) [compound 26] — higher, 0.43
- 49 (DAAWHLGELVWATYYDPETGTWVPDWDTMHAAINRSFREV; Artificial Sequence, pep22; IgG binding peptide) [compound 49] — higher, 0.346
- 42 (DAAWHLGELVWATYYDPETGTWAPDWNRMRDFNRSFREV; IgG binding peptide, pep29) [compound 42] — lower, 0.273
- 39 (DAAWHLGELVWATYYDPETGTWTPDWNAMSQR; IgG binding peptide, pep6) [compound 39] — lower, 0.273
- 52 (DAAWHLGELVWATYYDPETGTWRPDWARMEPM; IgG binding peptide, pep28) [compound 52] — lower, 0.25
- 50 (DAAWHLGELVWATYYDPETGTWIPDWRAMSQF; IgG binding peptide, pep23) [compound 50] — lower, 0.244
- 38 (DAAWHLGELVWATYYDPETGTWMPDWDRMLRR; IgG binding peptide, pep5) [compound 38] — lower, 0.29
- 51 (DAAWHLGELVWATYYDPETGTWLPDWNLMGQH; IgG binding peptide, pep26) [compound 51] — lower, 0.265
- 45 (DAAWHLGELVWATYYDPETGTWKPDWQRMKLH; IgG binding peptide, pep17) [compound 45] — lower, 0.249
- 53 (DAAWHLGELVWATYYDPETGTWKPDWQVMSPVSNRSFREV; IgG binding peptide, pep29) [compound 53] — lower, 0.279
- 36 (DAAWHLGELVWATYYDPETGTWKPDWRMMGVP; IgG binding peptide, pep3) [compound 36] — lower, 0.287
- 46 (DAAWHLGELVWATYYDPETGTWLPDWSQMRPQ; IgG binding peptide, pep18) [compound 46] — lower, 0.243
- 31 (DAAWHLGELVWATYYDPETGTWQPDWDIMAGH; IgG binding peptide, pep25) [compound 31] — lower, 0.295
- 44 (DAAWHLGELVWATYYDPETGTWIPDWTRMQTW; IgG binding peptide, pep16) [compound 44] — lower, 0.243
- 43 (DAAWHLGELVWATYYDPETGTWVPDWDAMSSR; IgG binding peptide, pep15) [compound 43] — higher, 0.813
- 30 (DAAWHLGELVWATYYDPETGTWEPDWKLMQRP; IgG binding peptide, pep7) [compound 30] — lower, 0.287
- 27 (DAAWHLGELVWATYYDPETGTWEPDWQRMLGQ; IgG binding peptide, pep24) [compound 27] — lower, 0.289
- 55 (EAWHLGELVWATYYDPETGTWRPDWSRMSGR; IgG binding peptide, pep11_2) [compound 55] — lower, 0.252
- 32 (DAAWHLGELVWATYYDPETGTWLPDWDVMVRQ; IgG binding peptide, pep27) [compound 32] — higher, 0.352
- 40 (DAAWHLGELVWATYYDPETGTWQPDWKRMTSR; IgG binding peptide, pep10) [compound 40] — lower, 0.251
